In one series the test system is monkeys. The series is described as follows: Systemic toxicity in monkeys. The series is classed as in vivo. To be noted: dose levels 1 mg/kg to 100 mg/kg.
Series [1] has as its system mice. The series is described as follows: Tail bleeding time in mice. The series is classed as in vivo. The procedure:
Mice (4-6 week old males, International Cancer Research (IRC)) were treated intravenously with 200 μL vehicle (PBS supplemented with 10% DMSO) or varying doses of WHI-P131 in […] vehicle. To evalulate bleeding and clotting times, treated mice were placed in a tube holder and tail bleeding was performed with a 2 mm cut from the protruding tail tip; the tail was placed vertically into 10 mL normal saline in a 37° C. water bath and bleeding times determined as previously described (Teng, et.al., 1997 Eur J Pharmacol 320(2-3), 161-6).

The test system of a further series is platelets. The series is described as follows: Serotonin release from thrombin-stimulated platelets. The series is classed as cell-based, human. To be noted: treated, N=4. As to the method: Release of serotonin from thrombin (0.1 U/mL)-stimulated platelets was measured using a serotonin detection kit (Immunotech, Marseille, France) according to the manufacturer's specifications. Sonnicated platelets were used for measurement of the total serotonin content of platelets.

Series [2] is described as follows: Plasma concentration in mice. The series is classed as in vivo.
Series [3] relates to collagen-induced platelet aggregation. The series is described as follows: Collagen-induced platelet aggregation. The series is classed as cell-based, human. The conditions noted are these: FIG. 7D.
In series [4] the test system is thrombin-induced platelet aggregation. Briefly: Thrombin-induced platelet aggregation (platelet aggregometer). The series is classed as cell-based, human. As to the method:
Platelet-rich plasma (PRP) was purchased from the Memorial Blood Bank (Minneapolis, Minn.) and used according to the guidelines of the Parker Hughes Institute Human Subjects Committee. The PRP samples were treated with varying concentrations of WHI-P131 for 20 minutes at 37° C. Control PRP samples were treated with vehicle alone. The treated PRP samples were diluted 1:4 with sterile normal saline and platelets were stimulated with thrombin (0.1 U/mL, Chronolog Inc., Philadelphia, Pa.) under stirred conditions. Platelet aggregation was monitored in a platelet aggregometer (Model 560 Dual Chamber Instrument, Chronolog Inc., Philadelphia, Pa.) for 5 minutes. The IC50 values for WHI-P131-mediated inhibition of agonist-induced platelet aggregation were calculated by non-linear regression analysis using Graphpad Prism software version 2.0 (Graphpad Software, Inc., San Diego, Calif.).

Series [5] has as its system mice. The series is described as follows: Systemic toxicity in mice. The series is classed as in vivo.
Series [6] deals with thromboplastin-induced thromboembolism. Briefly: Thromboplastin-induced thromboembolism model. The series is classed as in vivo. The procedure:
Mice (4-6 week old males, International Cancer Research (IRC)) were treated […] with 200 μL of vehicle (PBS supplemented with 10% DMSO), varying doses of WH-P131 in 200 μL of vehicle (administered intraperitoneally (i.p.) 30 minutes prior to the thromboplastin challenge). The mice were challenged with 25 mg/kg thromboplastin (Sigma, St. Louis, Mo.) via a bolus intravenous injection into the tail vein as previously described (Sato, et.al., 1998 Jpn J. Pharmacol 78(2), 191-7).
At the time of thromboembolism-related death after the thromboplastin injection or elective sacrifice at 48 hours using ketamine/xylazine, all mice were perfused with PBS followed by 4% phosphate buffered formalin. PBS and formalin were pumped through the left ventricle of the heart and allowed to exit through a 3 mm incision through the anterior wall of the right ventricle. During necropsy, several selected tissues (brain, heart, liver, lungs) were harvested, fixed in 10% neutral buffered formalin, dehydrated, and embedded in paraffin by routine methods for histopathologic examination. Glass slides with affixed 6 micron tissue sections were prepared and stained with hemotoxylin and eosin (H&E) or Masson's trichrome.

The next series deals with T1, JAK3 (Homo sapiens, UniProt P52333).
T1 sequence (P52333 1-1124): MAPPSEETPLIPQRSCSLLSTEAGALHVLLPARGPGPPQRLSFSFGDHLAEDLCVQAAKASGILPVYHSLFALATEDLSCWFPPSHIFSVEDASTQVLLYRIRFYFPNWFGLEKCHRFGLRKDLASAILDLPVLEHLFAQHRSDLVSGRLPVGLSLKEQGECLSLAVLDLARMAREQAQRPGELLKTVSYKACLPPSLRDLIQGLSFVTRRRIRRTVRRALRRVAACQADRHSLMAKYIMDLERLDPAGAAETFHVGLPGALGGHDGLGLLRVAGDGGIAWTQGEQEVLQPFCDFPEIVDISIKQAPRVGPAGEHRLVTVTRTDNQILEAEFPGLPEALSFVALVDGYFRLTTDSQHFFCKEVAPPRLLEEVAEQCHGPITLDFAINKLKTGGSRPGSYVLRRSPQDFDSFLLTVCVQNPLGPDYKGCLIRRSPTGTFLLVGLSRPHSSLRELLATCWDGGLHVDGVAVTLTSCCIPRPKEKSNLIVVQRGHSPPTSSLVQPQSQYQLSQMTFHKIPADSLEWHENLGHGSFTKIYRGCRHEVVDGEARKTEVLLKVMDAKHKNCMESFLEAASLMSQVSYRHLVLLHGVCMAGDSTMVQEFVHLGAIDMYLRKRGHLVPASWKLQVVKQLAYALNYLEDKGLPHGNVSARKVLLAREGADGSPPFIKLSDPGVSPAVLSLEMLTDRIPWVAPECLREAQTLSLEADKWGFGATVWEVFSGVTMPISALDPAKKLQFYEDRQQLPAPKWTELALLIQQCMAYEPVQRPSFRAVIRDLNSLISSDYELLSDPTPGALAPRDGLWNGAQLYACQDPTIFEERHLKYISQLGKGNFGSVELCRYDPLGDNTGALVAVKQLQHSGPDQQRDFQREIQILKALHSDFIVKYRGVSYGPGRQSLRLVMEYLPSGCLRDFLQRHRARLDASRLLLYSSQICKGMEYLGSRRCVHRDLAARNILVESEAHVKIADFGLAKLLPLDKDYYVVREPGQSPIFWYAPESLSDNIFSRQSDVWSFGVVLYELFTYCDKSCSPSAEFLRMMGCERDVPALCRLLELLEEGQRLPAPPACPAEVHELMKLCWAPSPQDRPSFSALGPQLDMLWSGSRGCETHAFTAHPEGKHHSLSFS
The series is described as follows: JAK3 inhibition (statement, no method).

The values that follow come from US20040034045A1, “Inhibitors of thrombin induced platelet aggregation” (Parker Hughes Institute, priority 2000, published 2004).

As usually defined, the IC50 is the concentration at which inhibition is half-maximal. For the molecule `COc1cc2ncnc(Nc3ccc(O)cc3)c2cc1OC` [WHI-P131, 4-(4′-Hydroxyphenyl)-amino-6,7-dimethoxyquinazoline], the “toxicity on systemic administration” value with monkeys is “not toxic”; with mice [5] (mice, dose levels 1 mg/kg to 100 mg/kg) it was “not toxic”. In addition, the “average tail bleeding time” value in the series with mice [1] (20 mg/kg, N=5) is 9.4 ± 0.6 min; with mice [1] (40 mg/kg, N=10), more than 10 min; with mice [1] (80 mg/kg, N=10), more than 10 min. Also, the “serotonin in platelet supernatants” value in the series with platelets was determined as 313 ± 19 nM. The “plasma concentrations achieved without toxicity” value in [2] was not below 10 µM. In addition, the “effect on collagen-induced platelet aggregation” value in series [3] is “does not inhibit”. In series [4] (Platelet, human platelets, pretreatment 30 minutes, thrombin 0.1 U/mL, average, read-out: IC50, inhibition of thrombin-induced platelet aggregation), the 50% inhibitory concentration (IC50) was determined as 1500 nM. For the same molecule, the “survival and health status without thromboplastin challenge” value in the series with mice [5] (20 control mice, 80 mg/kg, 48 hour observation) is recorded as “survived beyond the 48 hour observation period without any evidence of impaired health status or bleeding”. In [6] (mice, 25 mg/kg thromboplastin challenge), this molecule showed an event-free survival outcome of 30±15%. The “drug-related toxic lesions in organs (histopathology)” value in series [6] (pretreated, thromboplastin-challenged mice) is “No drug-related toxic lesions were detected”.

Take `COc1cc2ncnc(Nc3ccccc3)c2cc1OC` [WHI-P258]: the JAK3 inhibition entry at JAK3 is “does not inhibit”. Also, the “effect on thrombin-induced aggregation of platelets” value in series [4] (even at 100 μM) was “did not affect”. For the same molecule, the “effect on thrombin induced platelet aggregation (aggregation curves)” value in [4] (thrombin 0.1 U/mL, FIG. 7B/7C) is “had no effect”.
